Marks after values point to notes of the source that are not given here.
Assays:
Set-up in all cases: species or system Sprague–Dawley rats
[1] = Residence times in rat source organs from whole-body PET, FBP reconstruction; details: in vivo, iv
Experimental: (§1) Immediately after radiotracer administration, a 240 min emission scan using 4 beds (50% overlap) was obtained using 3-dimensional 1:5 mode and re-binned as follows: 7 × 1 min, 2 × 5 min and 4 × 10 min. Throughout the PET/CT scanning session, animal temperature and respiration rate were monitored and controlled. PET studies were reconstructed using filtered-back projection (FBP) and Mediso’s iterative Tera-Tomo 3D reconstruction algorithm with the following settings: 4 iterations, 6 subsets, full detector model, normal regularization, spike filter on, voxel size 0.4 mm and 400‒600 keV energy window. PET data were corrected for randoms, scatter and attenuation. […] Then, PMOD’s contours interpolation tool was used to interpolate ROIs for each organ into a corresponding volume-of-interest (VOI). A static cuboidal VOI was also drawn to include the animal whole-body. Time-activity curves for each source organ, whole-body and remainder of the body were plotted. […] Residence times (τ) were determined for each radiotracer in source organs, whole-body and remaining (any activity assigned to the whole-body but not assigned to a source organ). Each preclinical source organ’s τ was determined by calculating the area under its respective time-activity curve (activity normalised to the percentage maximum injected dose as a function of time) using the trapezoid method. […] From each individual animal, eight dosimetry models were constructed from all possible combinations of image reconstruction method (FBP or iterative), τ (non-normalised or normalised to human organ masses), and sex of phantom (male or female).

[2] = Residence times in rat source organs from whole-body PET, iterative reconstruction; details: in vivo, iv
Experimental: as §1

[3] = Residence times normalised to human organ masses, FBP reconstruction; details: rat, in vivo
Experimental: PET studies were reconstructed using filtered-back projection (FBP) and Mediso’s iterative Tera-Tomo 3D reconstruction algorithm with the following settings: 4 iterations, 6 subsets, full detector model, normal regularization, spike filter on, voxel size 0.4 mm and 400‒600 keV energy window. PET data were corrected for randoms, scatter and attenuation. Time-activity curves for each source organ, whole-body and remainder of the body were plotted. […] Residence times (τ) were determined for each radiotracer in source organs, whole-body and remaining (any activity assigned to the whole-body but not assigned to a source organ). Each preclinical source organ’s τ was determined by calculating the area under its respective time-activity curve (activity normalised to the percentage maximum injected dose as a function of time) using the trapezoid method. […] From each individual animal, eight dosimetry models were constructed from all possible combinations of image reconstruction method (FBP or iterative), τ (non-normalised or normalised to human organ masses), and sex of phantom (male or female). Supplementary table 1. Scaling (normalisation) factors applied to residence times of PET radiotracers in male Sprague-Dawley rats to predict human adult residence times. […] Stabin et al. 2006 ^4); WB: Whole Body.

[4] = OLINDA/EXM predicted clinical doses: adult male phantom, normalised τ, FBP; details: rat, in vivo
Experimental: (§2) PET studies were reconstructed using filtered-back projection (FBP) and Mediso’s iterative Tera-Tomo 3D reconstruction algorithm with the following settings: 4 iterations, 6 subsets, full detector model, normal regularization, spike filter on, voxel size 0.4 mm and 400‒600 keV energy window. PET data were corrected for randoms, scatter and attenuation. Time-activity curves for each source organ, whole-body and remainder of the body were plotted. […] Residence times (τ) were determined for each radiotracer in source organs, whole-body and remaining (any activity assigned to the whole-body but not assigned to a source organ). Each preclinical source organ’s τ was determined by calculating the area under its respective time-activity curve (activity normalised to the percentage maximum injected dose as a function of time) using the trapezoid method. […] From each individual animal, eight dosimetry models were constructed from all possible combinations of image reconstruction method (FBP or iterative), τ (non-normalised or normalised to human organ masses), and sex of phantom (male or female).

[5] = OLINDA/EXM predicted clinical doses: adult female phantom, non-normalised τ, iterative; details: rat, in vivo
Experimental: as §2, with “female). Supplementary table 10. Predicted clinical absorbed organ doses and whole-body effective doses of PET radiotracers using non-normalised (preclinical) adult female source organ residence times from iterative reconstructions.” for “female).”

## NOTA-RGDfK [existing Al^18F-labelled NOTA-RGDfK peptide PET radiotracer; precursor NOTA-RGDfK (1)]
[1]
  Residence Time (h), Average: Brain: 0.00193 h
  Residence Time (h), Average: Heart: 0.00279 h
  Residence Time (h), Average: Intestine: 0.209 h
  Residence Time (h), Average: Kidneys: 0.029 h
  Residence Time (h), Average: Liver: 0.0207 h
  Residence Time (h), Average: Lungs: 0.00664 h
  Residence Time (h), Average: Remaining: 1.96 h
  Residence Time (h), Average: Urinary Bladder: 0.892 h
[2]
  Residence Time (h), Average: Brain: 0.00225 h
  Residence Time (h), Average: Heart: 0.00473 h
  Residence Time (h), Average: Intestine: 0.212 h
  Residence Time (h), Average: Kidneys: 0.0652 h
  Residence Time (h), Average: Liver: 0.0391 h
  Residence Time (h), Average: Lungs: 0.00647 h
  Residence Time (h), Average: Remaining: 0.996 h
  Residence Time (h), Average: Urinary Bladder: 1.44 h
[3]
  Normalised Residence Time (h), Average: Remaining: 1.98 h
[4]
  Effective Dose (mSv/MBq), Average ± SD: 2.18E-02 mSv/MBq
  Estimated Absorbed Dose of Organ, Average: Adrenals: 1.10E-02 mGy/MBq
  Estimated Absorbed Dose of Organ, Average: Brain: 3.17E-03 mGy/MBq
  Estimated Absorbed Dose of Organ, Average: Breasts: 8.04E-03 mGy/MBq
  Estimated Absorbed Dose of Organ, Average: Gallbladder Wall: 1.15E-02 mGy/MBq
  Estimated Absorbed Dose of Organ, Average: Heart Wall: 1.15E-02 mGy/MBq
  Estimated Absorbed Dose of Organ, Average: Kidneys: 1.64E-02 § mGy/MBq
  Estimated Absorbed Dose of Organ, Average: LLI Wall: 5.79E-02 ‡ mGy/MBq
  Estimated Absorbed Dose of Organ, Average: Liver: 6.81E-03 mGy/MBq
  Estimated Absorbed Dose of Organ, Average: Lungs: 8.79E-03 mGy/MBq
  Estimated Absorbed Dose of Organ, Average: Muscle: 1.05E-02 mGy/MBq
  Estimated Absorbed Dose of Organ, Average: Osteogenic Cells: 1.53E-02 mGy/MBq
  Estimated Absorbed Dose of Organ, Average: Pancreas: 1.17E-02 mGy/MBq
  Estimated Absorbed Dose of Organ, Average: Red Marrow: 9.94E-03 mGy/MBq
  Estimated Absorbed Dose of Organ, Average: Skin: 7.88E-03 mGy/MBq
  Estimated Absorbed Dose of Organ, Average: Small Intestine: 1.40E-02 mGy/MBq
  Estimated Absorbed Dose of Organ, Average: Spleen: 1.09E-02 mGy/MBq
  Estimated Absorbed Dose of Organ, Average: Stomach Wall: 1.13E-02 mGy/MBq
  Estimated Absorbed Dose of Organ, Average: Testes: 1.18E-02 mGy/MBq
  Estimated Absorbed Dose of Organ, Average: Thymus: 9.99E-03 mGy/MBq
  Estimated Absorbed Dose of Organ, Average: Thyroid: 9.88E-03 mGy/MBq
  Estimated Absorbed Dose of Organ, Average: Total Body: 1.05E-02 mGy/MBq
  Estimated Absorbed Dose of Organ, Average: ULI Wall: 1.28E-02 mGy/MBq
  Estimated Absorbed Dose of Organ, Average: Urinary Bladder Wall: 1.16E-01 † mGy/MBq
[5]
  Effective Dose: 8.22E-02 mSv/MBq
  Estimated Absorbed Dose of Organ, Adrenals: 9.77E-03 mGy/MBq
  Estimated Absorbed Dose of Organ, Brain: 1.87E-03 mGy/MBq
  Estimated Absorbed Dose of Organ, Breasts: 5.49E-03 mGy/MBq
  Estimated Absorbed Dose of Organ, Gallbladder Wall: 1.07E-02 mGy/MBq
  Estimated Absorbed Dose of Organ, Heart Wall: 7.79E-03 mGy/MBq
  Estimated Absorbed Dose of Organ, Kidneys: 4.85E-02§ mGy/MBq
  Estimated Absorbed Dose of Organ, LLI Wall: 1.68E-01 ‡ mGy/MBq
  Estimated Absorbed Dose of Organ, Liver: 1.06E-02 mGy/MBq
  Estimated Absorbed Dose of Organ, Lungs: 5.19E-03 mGy/MBq
  Estimated Absorbed Dose of Organ, Muscle: 1.30E-02 mGy/MBq
  Estimated Absorbed Dose of Organ, Osteogenic Cells: 1.30E-02 mGy/MBq
  Estimated Absorbed Dose of Organ, Ovaries: 4.12E-02 mGy/MBq
  Estimated Absorbed Dose of Organ, Pancreas: 9.72E-03 mGy/MBq
  Estimated Absorbed Dose of Organ, Red Marrow: 1.18E-02 mGy/MBq
  Estimated Absorbed Dose of Organ, Skin: 7.18E-03 mGy/MBq
  Estimated Absorbed Dose of Organ, Small Intestine: 2.22E-02 mGy/MBq
  Estimated Absorbed Dose of Organ, Spleen: 9.42E-03 mGy/MBq
  Estimated Absorbed Dose of Organ, Stomach Wall: 9.44E-03 mGy/MBq
  Estimated Absorbed Dose of Organ, Thymus: 6.68E-03 mGy/MBq
  Estimated Absorbed Dose of Organ, Thyroid: 5.90E-03 mGy/MBq
  Estimated Absorbed Dose of Organ, ULI Wall: 1.78E-02 mGy/MBq
  Estimated Absorbed Dose of Organ, Urinary Bladder Wall: 9.66E-01 † mGy/MBq
  Estimated Absorbed Dose of Organ, Uterus: 6.04E-02 mGy/MBq
  Estimated Absorbed Dose, Total Body: 1.33E-02 mGy/MBq
